Measurements as given in patent US12570613B2, “Imidazoquinoline or benzoindazolone compound and intermediate for preparing same” (LMITO THERAPEUTICS INC., priority 2020, dated 2026).

Target: NQO1 protein (Homo sapiens, UniProt P15559)
Experiment: In vitro NQO1 enzyme activity assay (cytochrome C reduction, absorbance at 550 nm)
Type: biochemical
Details: NQO1 2 ng
Protocol: In order to evaluate the activity of the synthesized compound in NQO1, the experiments were performed as follows:
The synthesized compound was dissolved in DMSO to make a 10 mM stock solution, which was further diluted with DMSO to 250 μM so as to prepare a working solution. For experimental groups, the working solution of the compound was added to an enzyme reaction solution in which 50 μL of 1.54 mM Cytochrome C solution was added to 900 μL of 50 mM Tris-HCl (pH7.5) containing 0.14% BSA. For negative control groups, DMSO not containing the compound of the invention was added to the enzyme reaction solution as above. For each experimental and control group, 20 μL of 100 ng/mL NQO1 protein was added, and then 10 μL of 20 mM NADH was added to bring up the total volume to 1 mL. The change of absorbance was measured at 550 nm for 10 minutes using 1 mL cuvette. The kinetics of reaction was measured by the increase of absorbance as the cytochrome C was reduced at 550 nm over 10 minutes. The activity of NQO1 was measured by the amount of cytochrome C that is being reduced (nmol cytochrome C that was reduced/min/ug NQO1 protein). • Absorption coefficient of Cytochrome C: 21.1 (μmol/mL)^−1cm^−1 • BSA: Bovine Serum Albumin • […]: Tris(hydroxymethyl)aminomethane hydrochloride (buffer solution) • Equipment=Cary 100 UV-Vis Spectrophotometer • The results are shown in Tables 1 to 8.

Sequence of NQO1 protein (P15559 whole entry, species assumed): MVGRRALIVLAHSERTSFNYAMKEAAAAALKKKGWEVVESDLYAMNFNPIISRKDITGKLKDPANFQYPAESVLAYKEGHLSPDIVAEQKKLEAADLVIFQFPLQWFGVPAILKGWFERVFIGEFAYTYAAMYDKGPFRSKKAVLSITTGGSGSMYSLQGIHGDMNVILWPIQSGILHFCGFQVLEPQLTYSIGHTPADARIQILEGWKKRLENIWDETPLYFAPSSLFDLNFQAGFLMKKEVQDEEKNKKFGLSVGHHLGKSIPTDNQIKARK

SMILES | NQO1 activity assay Cytochrome C reduced/min/μg NQO1 protein (10 nM Compound (Table 1)) | other results
CCOC(=O)c1cn2c(n1)C(=O)C(=O)c1ccccc1-2 [Compound 5, Ethyl 4,5-dioxo-4,5-dihydroimidazo[1,2-a]quinolin-2-carboxylate] | 816 nmol cytochrome C that was reduced/min/ug NQO1 protein | –
CC(C)c1cnc2n1-c1ccccc1C(=O)C2=O [Compound 3, 1-Isopropylimidazo[1,2-a]quinolin-4,5-dione] | 755 nmol cytochrome C that was reduced/min/ug NQO1 protein | –
Cc1nn(-c2cc(F)cc(F)c2)c2c1C(=O)C(=O)c1ccccc1-2 [Compound 27, 1-(3,5-Difluorophenyl)-3-methyl-1H-benzo[g]indazol-4,5-dione] | 415 nmol cytochrome C that was reduced/min/ug NQO1 protein | –
Cc1c2c(nn1C(C)C)-c1ccccc1C(=O)C2=O [Compound 21, 2-Isopropyl-3-methyl-2H-benzo[g]indazol-4,5-dione] | 925 nmol cytochrome C that was reduced/min/ug NQO1 protein | –
Cc1nn(-c2ccc(C(=O)O)cc2)c2c1C(=O)C(=O)c1ccccc1-2 [Compound 37, 4-(3-Methyl-4,5-dioxo-4,5-dihydro-1H-benzo[g]indazol-1-yl)benzoic acid] | – | NQO1 activity assay Cytochrome C reduced/min/μg NQO1 protein (50 nM Compound (Table 2)): 1034 nmol cytochrome C that was reduced/min/ug NQO1 protein
O=C1C(=O)c2c(-c3ccccc3)nn(-c3ccccc3)c2-c2ccccc21 [Compound 13, 1,3-Diphenyl-1H-benzo[g]indazol-4,5-dione] | 198 nmol cytochrome C that was reduced/min/ug NQO1 protein | –
CCOC(=O)c1nc2n(c1-c1ccccc1)-c1ccccc1C(=O)C2=O [Compound 6, Ethyl 4,5-dioxo-1-phenyl-4,5-dihydroimidazo[1,2-a]quinolin-2-carboxylate] | 916 nmol cytochrome C that was reduced/min/ug NQO1 protein | –
Cc1c2c(nn1S(=O)(=O)c1ccc(C(F)(F)F)cc1)-c1ccccc1C(=O)C2=O [Compound 57, 3-Methyl-2-(4-(trifluoromethyl)phenylsulfonyl)-2H-benzo[g]indazol-4,5-dione] | – | NQO1 activity assay Cytochrome C reduced/min/μg NQO1 protein (50 nM Compound (Table 7)): 1868 nmol cytochrome C that was reduced/min/ug NQO1 protein
O=C1C(=O)c2c(CCc3ccccc3)nn(-c3ccccc3)c2-c2ccccc21 [Compound 12, 3-Phenethyl-1-phenyl-1H-benzo[g]indazol-4,5-dione] | 225 nmol cytochrome C that was reduced/min/ug NQO1 protein | –
COC(=O)c1ccc(S(=O)(=O)n2nc3c(c2C)C(=O)C(=O)c2ccccc2-3)cc1 [Compound 52, Methyl 4-(3-methyl-4,5-dioxo-4,5-dihydro-2H-benzo[g]indazol-2-ylsulfonyl)benzoate] | – | NQO1 activity assay Cytochrome C reduced/min/μg NQO1 protein (50 nM Compound (Table 7)): 2179 nmol cytochrome C that was reduced/min/ug NQO1 protein
Cc1c2c(nn1S(=O)(=O)c1ccc(Cl)cc1)-c1ccccc1C(=O)C2=O [Compound 49, 2-(4-Chlorophenylsulfonyl)-3-methyl-2H-benzo[g]indazol-4,5-dione] | – | NQO1 activity assay Cytochrome C reduced/min/μg NQO1 protein (50 nM Compound (Table 6)): 2171 nmol cytochrome C that was reduced/min/ug NQO1 protein
Cc1c2c(nn1S(=O)(=O)c1ccc(F)c(F)c1)-c1ccccc1C(=O)C2=O [Compound 58, 2-(3,4-Difluorophenylsulfonyl)-3-methyl-2H-benzo[g]indazol-4,5-dione] | – | NQO1 activity assay Cytochrome C reduced/min/μg NQO1 protein (50 nM Compound (Table 8)): 1913 nmol cytochrome C that was reduced/min/ug NQO1 protein
Cc1ccc(CCn2nc3c(c2C)C(=O)C(=O)c2ccccc2-3)cc1 [Compound 69, 3-Methyl-2-(4-methylphenethyl)-2H-benzo[g]indazol-4,5-dione] | – | NQO1 activity assay Cytochrome C reduced/min/μg NQO1 protein (50 nM Compound (Table 8)): 2460 nmol cytochrome C that was reduced/min/ug NQO1 protein
O=C1C(=O)c2cnn(-c3ccccc3)c2-c2ccccc21 [Compound 33, 1-Phenyl-1H-benzo[g]indazol-4,5-dione] | 436 nmol cytochrome C that was reduced/min/ug NQO1 protein | –
O=C1C(=O)c2ncc(-c3ccccc3)n2-c2ccccc21 [Compound 1, 1-Phenylimidazo[1,2-a]quinolin-4,5-dione] | 658 nmol cytochrome C that was reduced/min/ug NQO1 protein | –
Cc1ccc(CCn2nc(C)c3c2-c2ccccc2C(=O)C3=O)cc1 [Compound 68, 3-Methyl-1-(4-methylphenethyl)-1H-benzo[g]indazol-4,5-dione] | – | NQO1 activity assay Cytochrome C reduced/min/μg NQO1 protein (50 nM Compound (Table 8)): 1865 nmol cytochrome C that was reduced/min/ug NQO1 protein
Cc1nn(-c2ccc(F)cc2F)c2c1C(=O)C(=O)c1ccccc1-2 [Compound 32, 1-(2,4-Difluorophenyl)-3-methyl-1H-benzo[g]indazol-4,5-dione] | 839 nmol cytochrome C that was reduced/min/ug NQO1 protein | –
Cc1c2c(nn1-c1ccncc1)-c1ccccc1C(=O)C2=O [Compound 42, 3-Methyl-2-(pyridin-4-yl)-2H-benzo[g]indazol-4,5-dione] | – | NQO1 activity assay Cytochrome C reduced/min/μg NQO1 protein (50 nM Compound (Table 3)): 3212 nmol cytochrome C that was reduced/min/ug NQO1 protein
Cc1nn(-c2ccc(Cl)cc2)c2c1C(=O)C(=O)c1ccccc1-2 [Compound 26, 1-(4-Chlorophenyl)-3-methyl-1H-benzo[g]indazol-4,5-dione] | 465 nmol cytochrome C that was reduced/min/ug NQO1 protein | –
Cc1c2c(nn1S(=O)(=O)C1CC1)-c1ccccc1C(=O)C2=O [Compound 53, 2-(Cyclopropylsulfonyl)-3-methyl-2H-benzo[g]indazol-4,5-dione] | – | NQO1 activity assay Cytochrome C reduced/min/μg NQO1 protein (50 nM Compound (Table 7)): 1549 nmol cytochrome C that was reduced/min/ug NQO1 protein
Cc1c2c(nn1S(=O)(=O)c1ccc(F)cc1)-c1ccccc1C(=O)C2=O [Compound 45, 3-Methyl-2-(4-Fluorophenylsulfonyl)-2H-benzo[g]indazol-4,5-dione] | – | NQO1 activity assay Cytochrome C reduced/min/μg NQO1 protein (50 nM Compound (Table 5)): 2092 nmol cytochrome C that was reduced/min/ug NQO1 protein
Cc1nn(-c2ccccn2)c2c1C(=O)C(=O)c1ccccc1-2 [Compound 30, 3-Methyl-1-(pyridin-2-yl)-1H-benzo[g]indazol-4,5-dione] | 494 nmol cytochrome C that was reduced/min/ug NQO1 protein | –
Cc1c2c(nn1S(=O)(=O)c1ccc(C#N)cc1)-c1ccccc1C(=O)C2=O [Compound 55, 4-(3-Methyl-4,5-dioxo-4,5-dihydro-2H-benzo[g]indazol-2-ylsulfonyl)benzonitrile] | – | NQO1 activity assay Cytochrome C reduced/min/μg NQO1 protein (50 nM Compound (Table 7)): 1892 nmol cytochrome C that was reduced/min/ug NQO1 protein
CC(C)OCc1nn(-c2ccccc2)c2c1C(=O)C(=O)c1ccccc1-2 [Compound 19, 3-(Isopropoxymethyl)-1-phenyl-1H-benzo[g]indazol-4,5-dione] | 106 nmol cytochrome C that was reduced/min/ug NQO1 protein | –
Cc1c2c(nn1S(=O)(=O)c1ccccc1)-c1ccccc1C(=O)C2=O [Compound 44, 3-Methyl-2-(phenylsulfonyl)-2H-benzo[g]indazol-4,5-dione] | – | NQO1 activity assay Cytochrome C reduced/min/μg NQO1 protein (50 nM Compound (Table 3)): 2169 nmol cytochrome C that was reduced/min/ug NQO1 protein
